Test results: ChEMBL document CHEMBL1201862, “PubChem BioAssay data set” (2004)
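Step 1: Grow cells in 96-well plates. Step 2: Expose to compound for 48 hours at 5 concentrations. Step 3: Interpolate endpoints linearly; if unreached, use highest concentration. Abbreviation: GI50, concentration required for 50% inhibition of growth.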 The source made the active and inactive calls. No stated cut-off is given here; in the data, active = GI50 up to about 1.1 µM and inactive = higher.

Assays:
Assay in all cases: DTP human tumour cell line panel, 48 h
HT-29 = test system: HT-29
OVCAR-3 = test system: OVCAR-3
MDA-N = test system: MDA-N
U-251 = test system: U-251
PC-3 = test system: PC-3
OVCAR-4 = test system: OVCAR-4
SK-MEL-28 = test system: SK-MEL-28
K562 = test system: K562
HCC 2998 = test system: HCC 2998
M14 = test system: M14
EKVX = test system: EKVX
Malme-3M = test system: Malme-3M
CAKI-1 = test system: CAKI-1
NCI-H226 = test system: NCI-H226
OVCAR-8 = test system: OVCAR-8
A549 = test system: A549
SF-268 = test system: SF-268
HL-60 = test system: HL-60
RPMI-8226 = test system: RPMI-8226

Row | SMILES | GI50 (HT-29) | GI50 (OVCAR-3) | GI50 (MDA-N) | GI50 (U-251) | GI50 (PC-3) | GI50 (OVCAR-4) | GI50 (SK-MEL-28) | GI50 (K562) | GI50 (HCC 2998) | GI50 (M14) | GI50 (EKVX) | GI50 (Malme-3M) | GI50 (CAKI-1) | GI50 (NCI-H226) | GI50 (OVCAR-8) | GI50 (A549) | GI50 (SF-268) | GI50 (HL-60) | GI50 (RPMI-8226)
1 | O=C(O)C(O)C(O)C(O)C(O)CO.[Ba+2] (stereo unspecified) | > 100 µM (inactive) | > 100 µM (inactive) | > 100 µM (inactive) | > 100 µM (inactive) | > 100 µM (inactive) | > 100 µM (inactive) | > 100 µM (inactive) | > 100 µM (inactive) | > 100 µM (inactive) | > 100 µM (inactive) | > 100 µM (inactive) | > 100 µM (inactive) | > 100 µM (inactive) | > 100 µM (inactive) | > 100 µM (inactive) | > 100 µM (inactive) | > 100 µM (inactive) | 3.12 µM (inactive) | > 100 µM (inactive)
2 | COC(=O)/C=C(\C(=O)OC)c1cc(C)c2cc(C(C)C)ccc(C)c1-2 | 13.3 µM (inactive) | 49.4 µM (inactive) | 19.5 µM (inactive) | 51.1 µM (inactive) | 29 µM (inactive) | 88.3 µM (inactive) | > 100 µM (inactive) | > 100 µM (inactive) | 28 µM (inactive) | 23.5 µM (inactive) | 71 µM (inactive) | 38.5 µM (inactive) | 47.9 µM (inactive) | 53.3 µM (inactive) | 55.1 µM (inactive) | 28.2 µM (inactive) | > 100 µM (inactive) | 34.7 µM (inactive) | > 100 µM (inactive)
3 | COc1ccc2c(c1)C(=O)C1CCC(=O)N1C2c1ccc2c(c1)OCO2 (stereo unspecified) | 4.12 µM (inactive) | 3.64 µM (inactive) | 8.32 µM (inactive) | 15.2 µM (inactive) | 4.2 µM (inactive) | 25.4 µM (inactive) | 11.3 µM (inactive) | 3.36 µM (inactive) | 14.8 µM (inactive) | 12.9 µM (inactive) | 20.3 µM (inactive) | 4.89 µM (inactive) | 19.7 µM (inactive) | 15.7 µM (inactive) | 18.1 µM (inactive) | 21 µM (inactive) | 13.6 µM (inactive) | 2.79 µM (inactive) | 2.91 µM (inactive)
4 | CCOC(=O)c1cc(C2CCN(CC(C)CC)C2=S)c(-c2cc(C)no2)[nH]1 (stereo unspecified) | 41.7 µM (inactive) | > 100 µM (inactive) | > 100 µM (inactive) | > 100 µM (inactive) | 41.6 µM (inactive) | > 100 µM (inactive) | > 100 µM (inactive) | 77.4 µM (inactive) | > 100 µM (inactive) | > 100 µM (inactive) | 14.7 µM (inactive) | > 100 µM (inactive) | > 100 µM (inactive) | 55.3 µM (inactive) | 68.4 µM (inactive) | 51.4 µM (inactive) | 69.3 µM (inactive) | 35 µM (inactive) | 66.1 µM (inactive)
5 | COc1ccc2c(c1)OCC1Cc3ccccc3OC21 (stereo unspecified) | > 100 µM (inactive) | > 100 µM (inactive) | > 10 µM (inactive) | > 10 µM (inactive) | 98.4 µM (inactive) | – | – | > 100 µM (inactive) | > 100 µM (inactive) | 69.5 µM (inactive) | 49.9 µM (inactive) | > 100 µM (inactive) | > 100 µM (inactive) | > 100 µM (inactive) | > 100 µM (inactive) | > 100 µM (inactive) | > 100 µM (inactive) | > 100 µM (inactive) | 75.7 µM (inactive)
6 | CC1CN=C(N(C(=O)Nc2ccccc2)c2ccc(Cl)c(Cl)c2)S1 (stereo unspecified) | 16.1 µM (inactive) | > 10 µM (inactive) | > 10 µM (inactive) | > 10 µM (inactive) | 26.8 µM (inactive) | 75.3 µM (inactive) | 40.6 µM (inactive) | > 10 µM (inactive) | 24.8 µM (inactive) | 38.7 µM (inactive) | 23.3 µM (inactive) | 38 µM (inactive) | 27.9 µM (inactive) | – | 35.6 µM (inactive) | 25.9 µM (inactive) | 61 µM (inactive) | 30.3 µM (inactive) | 41.3 µM (inactive)
7 | O=c1c(Cc2ccc(Cl)cc2)nnc2sc(-c3ccc([N+](=O)[O-])cc3)nn12 | 30.1 µM (inactive) | – | 24.7 µM (inactive) | 29 µM (inactive) | 20.7 µM (inactive) | 28.7 µM (inactive) | – | 15.6 µM (inactive) | 17.9 µM (inactive) | 16.9 µM (inactive) | 23.2 µM (inactive) | 23.4 µM (inactive) | 31.1 µM (inactive) | – | 35 µM (inactive) | 24.3 µM (inactive) | 32.1 µM (inactive) | 24.4 µM (inactive) | 21.3 µM (inactive)
8 | Cc1sc2nc(N(C)C)oc(=O)c2c1C | > 100 µM (inactive) | – | > 100 µM (inactive) | > 100 µM (inactive) | 63.1 µM (inactive) | > 100 µM (inactive) | > 100 µM (inactive) | 63.4 µM (inactive) | > 100 µM (inactive) | > 100 µM (inactive) | 59.6 µM (inactive) | > 100 µM (inactive) | 76.9 µM (inactive) | > 100 µM (inactive) | 73.5 µM (inactive) | 85.9 µM (inactive) | 7.01 µM (inactive) | 37.9 µM (inactive) | 41.3 µM (inactive)
9 | COC(=O)/C=C\[C@@H]1[C@H](C)N1S(=O)(=O)c1ccc(C)cc1 (stereo partly specified) | > 100 µM (inactive) | > 100 µM (inactive) | > 100 µM (inactive) | > 100 µM (inactive) | > 100 µM (inactive) | > 100 µM (inactive) | > 100 µM (inactive) | > 100 µM (inactive) | > 100 µM (inactive) | > 100 µM (inactive) | – | > 100 µM (inactive) | > 100 µM (inactive) | > 100 µM (inactive) | > 100 µM (inactive) | > 100 µM (inactive) | > 100 µM (inactive) | > 100 µM (inactive) | > 100 µM (inactive)
10 | O=C(c1ccccc1)C1C(C(=O)c2ccccc2)C(c2ccccc2)N(c2ccccc2)C1c1ccccc1 (stereo unspecified) | – | > 100 µM (inactive) | > 100 µM (inactive) | > 100 µM (inactive) | > 100 µM (inactive) | – | > 100 µM (inactive) | 46.7 µM (inactive) | > 100 µM (inactive) | > 100 µM (inactive) | > 100 µM (inactive) | > 100 µM (inactive) | > 100 µM (inactive) | > 100 µM (inactive) | > 100 µM (inactive) | > 100 µM (inactive) | > 100 µM (inactive) | 5.48 µM (inactive) | 21.2 µM (inactive)
11 | CNC1C(O)C(OC2C(N)CC(N)C(OC3OC(CN)=CCC3N)C2O)OCC1(C)O (stereo unspecified) | > 100 µM (inactive) | > 100 µM (inactive) | > 100 µM (inactive) | > 100 µM (inactive) | > 100 µM (inactive) | – | > 100 µM (inactive) | > 100 µM (inactive) | > 100 µM (inactive) | > 100 µM (inactive) | > 100 µM (inactive) | > 100 µM (inactive) | > 100 µM (inactive) | > 100 µM (inactive) | > 100 µM (inactive) | > 100 µM (inactive) | > 100 µM (inactive) | > 100 µM (inactive) | > 100 µM (inactive)
12 | O=C(O)C1CCCCC1c1c2ccc(=O)cc-2oc2cc(O)ccc12 (stereo unspecified) | 29.3 µM (inactive) | 24.4 µM (inactive) | 21.6 µM (inactive) | 30.5 µM (inactive) | 28.8 µM (inactive) | 23.1 µM (inactive) | 35.6 µM (inactive) | 14.1 µM (inactive) | 31 µM (inactive) | 26.1 µM (inactive) | 33.5 µM (inactive) | 29.7 µM (inactive) | 31.8 µM (inactive) | – | 26.5 µM (inactive) | 38.4 µM (inactive) | 33.7 µM (inactive) | 54.6 µM (inactive) | 23 µM (inactive)
13 | COc1ccc(/N=C2\C(=O)Nc3ccc(Br)cc32)cc1 | 23.4 µM (inactive) | 21.7 µM (inactive) | 13.9 µM (inactive) | 22.9 µM (inactive) | 25.3 µM (inactive) | – | 31.3 µM (inactive) | 8.67 µM (inactive) | 19.2 µM (inactive) | 17.5 µM (inactive) | 17.2 µM (inactive) | 19.8 µM (inactive) | 14.4 µM (inactive) | 16.2 µM (inactive) | 14.9 µM (inactive) | 24.2 µM (inactive) | 18.4 µM (inactive) | 15.6 µM (inactive) | 5.83 µM (inactive)
14 | Nc1nc(Nc2ccc(Cl)cc2)sc1C(=O)c1c[nH]c2ccccc12 | 6.78 µM (inactive) | 13.8 µM (inactive) | 12.4 µM (inactive) | 12.2 µM (inactive) | 14 µM (inactive) | 14.7 µM (inactive) | 15.4 µM (inactive) | 6.18 µM (inactive) | 11.3 µM (inactive) | 11.2 µM (inactive) | – | 16.4 µM (inactive) | – | 19.3 µM (inactive) | – | 13.6 µM (inactive) | 21.4 µM (inactive) | 15.7 µM (inactive) | 11.6 µM (inactive)
15 | COC(=O)CCSC1=CC(=O)c2nc3ccccc3c3ccnc1c23 | 18 µM (inactive) | 2.68 µM (inactive) | 28 µM (inactive) | 32.4 µM (inactive) | 15.4 µM (inactive) | 19.8 µM (inactive) | 21.9 µM (inactive) | 8.47 µM (inactive) | 14.3 µM (inactive) | 21.9 µM (inactive) | 18.9 µM (inactive) | – | 18.8 µM (inactive) | 47.1 µM (inactive) | 17.1 µM (inactive) | > 93.1 µM (inactive) | 15.1 µM (inactive) | 3.61 µM (inactive) | 23.6 µM (inactive)
16 | COc1cccc(-c2cc(O)c3c(C)cc(C)nc3n2)c1 | 0.34 µM (active) | 0.228 µM (active) | 0.067 µM (active) | 0.526 µM (active) | 0.304 µM (active) | 4.09 µM (inactive) | 0.83 µM (active) | 0.158 µM (active) | 0.682 µM (active) | 0.406 µM (active) | 3.85 µM (inactive) | 0.252 µM (active) | – | 0.394 µM (active) | 0.944 µM (active) | 0.78 µM (active) | 0.578 µM (active) | 0.182 µM (active) | 0.345 µM (active)
